In patent US20240000767A1, “COMBINATION OF AN ALPHA2-ADRENOCEPTOR SUBTYPE C (ALPHA-2C) ANTAGONIST WITH A TASK1/3 CHANNEL BLOCKER FOR THE TREATMENT OF SLEEP APNEA” (Bayer Aktiengesellschaft, priority 2020, published 2024):

Biological target: human ADRA2C receptor (Homo sapiens (Human), UniProt P18825)
Assay: In vitro activity assay to determine the inhibition of recombinant ADRA2C (CHO-K1 cells, aequorin bioluminescence)
Type: cell-based
Conditions: inhibition of noradrenaline-induced bioluminescence signal; some mean values from multiple determinations; read-out: ARα2C IC50
Method: B-2. In Vitro Activity Assay to Determine the Inhibition of Recombinant ADRA2C
The human ADRA2C receptor belongs to the G protein(guanine-dependent protein)-coupled receptors, the main function of which is the transduction of signals into the interior of the cell.
The investigations of the inhibition of the recombinant human ADRA2C receptors were carried out with stabily transfected CHO-K1 cells coexpressing the Gaq protein and the calcium-sensitive photoprotein aequorin. In this recombinant system, binding of the agonists noradrenaline to the ADRA2C receptor leads, after activation of a signal cascade, to calcium release from intracellular stores, which is detected by the intracellular calcium sensor aequorin as a bioluminescent signal. The method is described in detail in the reference below. [Wunder F., Kalthof B., Muller T., Hueser J. Functional Cell-Based Assays in Microliter Volumes for Ultra-High Throughput Screening. Combinatorial Chemistry & High Throughput Screening, Volume 11, Number 7, 2008, pp. 495-504(10). doi.org/10.2174/138620708785204054]
The activity of the test substances was determined via their ability to inhibit the agonist-induced increase of the bioluminescence signal. The concentration which can block half of this signal increase is referred to as IC50. The IC50 value is calculated using the 4 parameter logistic function (Hill function):
Top=upper threshold, Bottom=lower threshold, Slope=slope, IC50=turning point

Sequence of human ADRA2C receptor (P18825 whole entry): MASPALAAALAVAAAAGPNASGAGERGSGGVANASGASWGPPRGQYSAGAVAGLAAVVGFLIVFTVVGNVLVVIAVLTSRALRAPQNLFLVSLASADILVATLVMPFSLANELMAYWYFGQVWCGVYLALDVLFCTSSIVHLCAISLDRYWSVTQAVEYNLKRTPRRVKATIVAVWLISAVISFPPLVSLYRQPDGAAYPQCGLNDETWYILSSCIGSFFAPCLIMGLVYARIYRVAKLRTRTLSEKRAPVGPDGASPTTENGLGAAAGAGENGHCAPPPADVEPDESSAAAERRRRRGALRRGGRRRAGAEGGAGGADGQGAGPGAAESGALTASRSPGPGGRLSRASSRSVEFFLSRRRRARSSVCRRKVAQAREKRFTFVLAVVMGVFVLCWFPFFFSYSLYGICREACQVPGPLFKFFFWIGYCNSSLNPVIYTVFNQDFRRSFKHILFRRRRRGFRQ

| SMILES | IC50 [nM] |
| --- | --- |
| C[C@@H]1CCCN(C2CCN(c3nc(C(F)(F)F)c(C(=O)NCc4ncc(F)cc4F)s3)CC2)C1 [Example 11, N-[(3,5-difluoropyridin-2-yl)methyl]-2-[(3R)-3-methyl[1,4′-bipiperidin]-1′-yl]-4-(trifluoromethyl)-1,3-thiazole-5-carboxamide] | 140 |
| CCc1sc(N2CCC(N3CCC[C@@H](C)C3)CC2)nc1C(=O)NCc1ncc(F)cc1F [Example 12, N-[(3,5-difluoropyridin-2-yl)methyl]-5-ethyl-2-[(3R)-3-methyl[1,4′-bipiperidin]-1′-yl]-1,3-thiazole-4-carboxamide] | 107 |
| C[C@@H]1CCCN(C2CCN(c3nc(C(=O)NCc4ncc(F)cc4F)co3)CC2)C1 [Example 13, N-[(3,5-difluoropyridin-2-yl)methyl]-2-[(3R)-3-methyl[1,4′-bipiperidin]-1′-yl]-1,3-oxazole-4-carboxamide] | 209 |
| Cc1oc(N2CCC(N3CCC[C@@H](C)C3)CC2)nc1C(=O)NCc1ncc(F)cc1F [Example 14, N-[(3,5-difluoropyridin-2-yl)methyl]-5-methyl-2-[(3R)-3-methyl[1,4′-bipiperidin]-1′-yl]-1,3-oxazole-4-carboxamide] | 211 |
| CO[C@@H]1CCCN(C2CCN(c3ncc(C(=O)NCc4ncc(F)cc4F)s3)CC2)C1 [Example 15, N-[(3,5-difluoropyridin-2-yl)methyl]-2-[(3R)-3-methoxy[1,4′-bipiperidin]-1′-yl]-1,3-thiazole-5-carboxamide] | 1850 |
| C[C@@H]1CCCN(C2CCN(c3ncc(C(=O)NCc4cccc(C(F)(F)F)c4)s3)CC2)C1 [Example 19, 2-[(3R)-3-Methyl[1,4′-bipiperidin]-1′-yl]-N-[3-(trifluoromethyl)benzyl]-1,3-thiazole-5-carboxamide] | 690 |
| C[C@@H]1CCCN(C2CCN(c3ncc(C(=O)NCc4ncccc4F)s3)CC2)C1 [Example 20, N-[(3-Fluoropyridin-2-yl)methyl]-2-[(3R)-3-methyl[1,4′-bipiperidin]-1′-yl]-1,3-thiazole-5-carboxamide] | 110 |
| C[C@@H]1CCCN(C2CCN(c3ncc(C(=O)NCc4cc(Cl)ccc4F)s3)CC2)C1 [Example 21, N-(5-Chloro-2-fluorobenzyl)-2-[(3R)-3-methyl[1,4′-bipiperidin]-1′-yl]-1,3-thiazole-5-carboxamide] | 7.2 |
| C[C@@H]1CCCN(C2CCN(c3ncc(C(=O)NCc4ccc(C(F)(F)F)cc4)s3)CC2)C1 [Example 22, 2-[(3R)-3-Methyl[1,4′-bipiperidin]-1′-yl]-N-[4-(trifluoromethyl)benzyl]-1,3-thiazole-5-carboxamide] | 640 |
| C[C@@H]1CCCN(C2CCN(c3ncc(C(=O)NCc4ncc(Cl)cc4F)s3)CC2)C1 [Example 23, N-[(5-chloro-3-fluoropyridin-2-yl)methyl]-2-[(3R)-3-methyl[1,4′-bipiperidin]-1′-yl]-1,3-thiazole-5-carboxamide] | 17 |
| Cc1cccnc1CNC(=O)c1cnc(N2CCC(N3CCC[C@@H](C)C3)CC2)s1 [Example 24, 2-[(3R)-3-methyl[1,4′-bipiperidin]-1′-yl]-N-[(3-methylpyridin-2-yl)methyl]-1,3-thiazole-5-carboxamide] | 1060 |
| Cc1ccnc(CNC(=O)c2cnc(N3CCC(N4CCC[C@@H](C)C4)CC3)s2)c1 [Example 25, 2-[(3R)-3-methyl[1,4′-bipiperidin]-1′-yl]-N-[(4-methylpyridin-2-yl)methyl]-1,3-thiazole-5-carboxamide] | 2400 |
| C[C@@H]1CCCN(C2CCN(c3ncc(C(=O)NCc4ncccc4Cl)s3)CC2)C1 [Example 26, N-[(3-chloropyridin-2-yl)methyl]-2-[(3R)-3-methyl[1,4′-bipiperidin]-1′-yl]-1,3-thiazole-5-carboxamide] | 280 |
| C[C@@H]1CCCN(C2CCN(c3ncc(C(=O)N(C)Cc4ncccc4F)s3)CC2)C1 [Example 27, N-[(3-fluoropyridin-2-yl)methyl]-N-methyl-2-[(3R)-3-methyl[1,4′-bipiperidin]-1′-yl]-1,3-thiazole-5-carboxamide] | 310 |
| C[C@@H]1CCCN(C2CCN(c3ncc(C(=O)NCc4cccc(C(F)(F)F)n4)s3)CC2)C1 [Example 28, 2-[(3R)-3-methyl[1,4′-bipiperidin]-1′-yl]-N-{[6-(trifluoromethyl)pyridin-2-yl]methyl}-1,3-thiazole-5-carboxamide] | 890 |
| C[C@@H]1CCCN(C2CCN(c3ncc(C(=O)NCc4ccc(Cl)cn4)s3)CC2)C1 [Example 29, N-[(5-chloropyridin-2-yl)methyl]-2-[(3R)-3-methyl[1,4′-bipiperidin]-1′-yl]-1,3-thiazole-5-carboxamide] | 96 |

| SMILES | IC50 [nM] |
| --- | --- |
| C[C@@H]1CCCN(C2CCN(c3ncc(C(=O)NCc4ncc(F)cc4Cl)s3)CC2)C1 [Example 31, N-[(3-chloro-5-fluoropyridin-2-yl)methyl]-2-[(3R)-3-methyl[1,4′-bipiperidin]-1′-yl]-1,3-thiazole-5-carboxamide] | 89 |
| C[C@@H]1CCCN(C2CCN(c3ncc(C(=O)NCc4cccc(OC(F)(F)F)n4)s3)CC2)C1 [Example 32, 2-[(3R)-3-methyl[1,4′-bipiperidin]-1′-yl]-N-{[6-(trifluoromethoxy)pyridin-2-yl]methyl}-1,3-thiazole-5-carboxamide] | 640 |
| C[C@@H]1CCCN(C2CCN(c3ncc(C(=O)NCc4ccc(Cl)cc4)s3)CC2)C1 [Example 33, N-(4-chlorobenzyl)-2-[(3R)-3-methyl[1,4′-bipiperidin]-1′-yl]-1,3-thiazole-5-carboxamide] | 15 |
| C[C@@H]1CCCN(C2CCN(c3ncc(C(=O)NCc4cc(F)ccc4Cl)s3)CC2)C1 [Example 34, N-(2-chloro-5-fluorobenzyl)-2-[(3R)-3-methyl[1,4′-bipiperidin]-1′-yl]-1,3-thiazole-5-carboxamide] | 640 |
| Cc1ccc(CNC(=O)c2cnc(N3CCC(N4CCC[C@@H](C)C4)CC3)s2)cc1 [Example 35, N-(4-methylbenzyl)-2-[(3R)-3-methyl[1,4′-bipiperidin]-1′-yl]-1,3-thiazole-5-carboxamide] | 1000 |
| Cc1cccc(CNC(=O)c2cnc(N3CCC(N4CCC[C@@H](C)C4)CC3)s2)c1 [Example 36, N-(3-methylbenzyl)-2-[(3R)-3-methyl[1,4′-bipiperidin]-1′-yl]-1,3-thiazole-5-carboxamide] | 190 |
| Cc1ccccc1CNC(=O)c1cnc(N2CCC(N3CCC[C@@H](C)C3)CC2)s1 [Example 37, N-(2-methylbenzyl)-2-[(3R)-3-methyl[1,4′-bipiperidin]-1′-yl]-1,3-thiazole-5-carboxamide] | 200 |
| O=C(NCc1ncc(F)cc1F)c1cnc(N2CCC(N3CCC[C@H](C(F)F)C3)CC2)s1 [Example 38, 2-[(3S)-3-(Difluoromethyl)[1,4′-bipiperidin]-1′-yl]-N-[(3,5-difluoropyridin-2-yl)methyl]-1,3-thiazole-5-carboxamide] | 2340 |
| O=C(NCc1ncc(F)cc1F)c1cnc(N2CCC(N3CCC[C@@H](C(F)F)C3)CC2)s1 [Example 39, 2-[(3R)-3-(Difluoromethyl)[1,4′-bipiperidin]-1′-yl]-N-[(3,5-difluoropyridin-2-yl)methyl]-1,3-thiazole-5-carboxamide] | 135 |
| O=C(NCc1ncc(F)cc1F)c1cnc(N2CCC(N3CCC[C@@H](CF)C3)CC2)s1 [Example 41, N-[(3,5-Difluoropyridin-2-yl)methyl]-2-[(3R)-3-(fluoromethyl)[1,4′-bipiperidin]-1′-yl]-1,3-thiazole-5-carboxamide] | 243 |
| O=C(NCc1ncc(F)cc1F)c1cnc(N2CCC(N3CCC[C@@H](C(F)(F)F)C3)CC2)s1 [Example 43, N-[(3,5-Difluoropyridin-2-yl)methyl]-2-[(3R)-3-(trifluoromethyl)[1,4′-bipiperidin]-1′-yl]-1,3-thiazole-5-carboxamide] | 26 |
| O=C(NCc1ncc(F)cc1F)c1cnc(N2CCC(N3CCC[C@@H](OCC4CC(F)(F)C4)C3)CC2)s1 [Example 44, 2-{(3R)-3-[(3,3-Difluorocyclobutyl)methoxy][1,4′-bipiperidin]-1′-yl}-N-[(3,5-difluoropyridin-2-yl)methyl]-1,3-thiazole-5-carboxamide] | 41.2 |
| C[C@@H]1CCCN(C2CCN(c3noc(C(=O)NCc4ncc(F)cc4F)n3)CC2)C1 [Example 49, N-[(3,5-Difluoropyridin-2-yl)methyl]-3-[(3R)-3-methyl[1,4′-bipiperidin]-1′-yl]-1,2,4-oxadiazole-5-carboxamide] | 56 |
| C[C@@H]1CCCN(C2CCN(c3ncc(C(=O)NCc4ncc(Cl)s4)s3)CC2)C1 [Example 56, N-[(5-Chloro-1,3-thiazol-2-yl)methyl]-2-[(3R)-3-methyl[1,4′-bipiperidin]-1′-yl]-1,3-thiazole-5-carboxamide] | 240 |
| C[C@@H]1CCCN(C2CCN(c3ncc(C(=O)NCc4ccc(F)s4)s3)CC2)C1 [Example 57, N-[(5-Fluoro-2-thienyl)methyl]-2-[(3R)-3-methyl[1,4′-bipiperidin]-1′-yl]-1,3-thiazole-5-carboxamide] | 830 |
| C[C@@H]1CCCN(C2CCN(c3ncc(C(=O)NCc4ccncc4)s3)CC2)C1 [Example 58, 2-[(3R)-3-Methyl[1,4′-bipiperidin]-1′-yl]-N-(pyridin-4-ylmethyl)-1,3-thiazole-5-carboxamide] | 870 |
